Drawing on PubChem BioAssay (NCI), this text covers TGI and GI50 for 13 molecules.

Among the test systems are ACHN renal; CAKI-1 renal; CCRF-CEM leukemia; HCC-2998 colon; HT29 colon; IGROV1 ovarian; MDA-MB-435; RXF 393 renal; SF-539 CNS; UACC-257 melanoma.
Common to all, as to test: inhibition of tumour cell growth, NCI panel, 48 h

SMILES strings stand for the structures.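 48-hour exposure; five concentrations; linearly interpolated endpoints. At the GI50, growth is halved. TGI: total growth inhibition.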 Some results are limits rather than exact numbers.

Regarding `COC(=O)/C=C(\S/C=C(/c1ccccc1)N1CCn2c(C(=O)c3ccccc3)c(C(=O)OC)c(C(=O)OC)c21)C(=O)OC`, the TGI in the assay on ACHN renal is more than 10 µM; in the assay with CAKI-1 renal, more than 10 µM; in the assay on CCRF-CEM leukemia it was 4.2 µM; with HCC-2998 colon it was more than 10 µM; in the assay on HT29 colon, more than 10 µM; with IGROV1 ovarian, more than 10 µM. Moreover, the TGI in the assay with MDA-MB-435 is more than 10 µM; in the assay on RXF 393 renal, 4.67 µM; in the assay on SF-539 CNS, 3.74 µM; with UACC-257 melanoma it was 9.21 µM.
Turning to `COc1ccc(-n2c(=O)n(-c3ccccc3)c(=O)n2-c2ccc(OC)cc2)cc1`, the TGI in the assay on ACHN renal is more than 100 µM; with CAKI-1 renal, 7.59 µM; in the assay with CCRF-CEM leukemia it was more than 100 µM; in the assay on HCC-2998 colon, more than 100 µM; in the assay on IGROV1 ovarian it was more than 100 µM; in the assay with MDA-MB-435 it was more than 100 µM. Moreover, the TGI with RXF 393 renal, in the assay with SF-539 CNS and in the assay on UACC-257 melanoma was more than 100 µM throughout.
Turning to `CC/C=C/C[C@H](O)[C@H]1C[C@H]2O[C@H](CC(=O)OC)C[C@H]2O1`, the TGI with ACHN renal, in the assay on CAKI-1 renal, in the assay with CCRF-CEM leukemia, with HCC-2998 colon, in the assay on HT29 colon and in the assay with IGROV1 ovarian was more than 100 µM in each case. Further, the TGI in the assay with MDA-MB-435 and in the assay with RXF 393 renal was more than 100 µM in each case.
For the molecule `CCn1c(=O)c2nc(SC)sc2n(-c2ccccc2)c1=O`, the TGI in the assay on ACHN renal, with CCRF-CEM leukemia, in the assay on HCC-2998 colon, with HT29 colon, in the assay on IGROV1 ovarian and in the assay with MDA-MB-435 was more than 100 µM in each case. In addition, the TGI in the assay on RXF 393 renal, in the assay with SF-539 CNS and with UACC-257 melanoma was more than 100 µM throughout.
For `ClCc1cccc(CSc2ncnc3c2ncn3Cc2cccc(CCl)c2)c1`, the GI50 with ACHN renal is 2 µM; in the assay on CAKI-1 renal, 1.92 µM; in the assay with CCRF-CEM leukemia, 1.6 µM; in the assay on HCC-2998 colon it was 1.71 µM; in the assay on HT29 colon, 2.04 µM; in the assay with IGROV1 ovarian, 1.95 µM. The GI50 in the assay on MDA-MB-435 was 1.71 µM; with RXF 393 renal it was 1.05 µM; in the assay with SF-539 CNS it was 1.58 µM; in the assay on UACC-257 melanoma it was 1.74 µM. For the same molecule, the TGI in the assay on ACHN renal is 4.39 µM; in the assay on CAKI-1 renal it was 4.34 µM; in the assay on CCRF-CEM leukemia, 6.95 µM; in the assay on HCC-2998 colon, 3.13 µM; with HT29 colon, 3.74 µM; with IGROV1 ovarian, 4.51 µM. For the same molecule, the TGI in the assay on MDA-MB-435 stood at 3.67 µM; with RXF 393 renal, 2.4 µM; with SF-539 CNS, 4.31 µM; in the assay with UACC-257 melanoma, 3.37 µM.
On to `CSCCCNC(=O)c1csc(-c2csc(CCNC(=O)CNC(=O)CNC(=O)OC(C)(C)C)n2)n1`, for which the TGI in the assay on ACHN renal, in the assay on CAKI-1 renal, with CCRF-CEM leukemia, with HCC-2998 colon, in the assay with HT29 colon and in the assay on IGROV1 ovarian was more than 100 µM in each case. The TGI in the assay with MDA-MB-435, in the assay on RXF 393 renal, in the assay with SF-539 CNS and in the assay with UACC-257 melanoma was more than 100 µM throughout.
As for `COc1cc(NC=C2C(=O)OC(C)(C)OC2=O)c(OC)c(C)c1OC`, the TGI in the assay on ACHN renal, with CAKI-1 renal, in the assay with CCRF-CEM leukemia, in the assay on HCC-2998 colon, in the assay on HT29 colon and with IGROV1 ovarian was more than 100 µM each time. The TGI in the assay on MDA-MB-435, in the assay on RXF 393 renal, with SF-539 CNS and in the assay with UACC-257 melanoma was more than 100 µM throughout.
For the molecule `CC(C)/C(=N\[N+](C)(C)C)c1ccccc1`, the TGI in the assay with ACHN renal, in the assay with CAKI-1 renal, with CCRF-CEM leukemia, in the assay on HCC-2998 colon, in the assay on HT29 colon and with IGROV1 ovarian was more than 100 µM each time. The TGI in the assay on MDA-MB-435, in the assay with RXF 393 renal, with SF-539 CNS and in the assay with UACC-257 melanoma was more than 100 µM throughout.
Regarding `CC(C)(C)OC(=O)CN1CCN(CC(=O)N2CCN(C(=O)OCc3ccccc3)CC2)CCN(CC(=O)OC(C)(C)C)CCN(CC(=O)N2CCN(C(=O)OCc3ccccc3)CC2)CC1`, the TGI in the assay with ACHN renal is 22.3 µM; in the assay with CAKI-1 renal it was 23.4 µM; in the assay with CCRF-CEM leukemia it was 3.51 µM; with HCC-2998 colon, 6.55 µM; in the assay with HT29 colon, 1.37 µM; with IGROV1 ovarian, 2.65 µM. The TGI in the assay with MDA-MB-435 came to 7.36 µM; in the assay on RXF 393 renal, 17 µM; with SF-539 CNS, 6.85 µM; in the assay with UACC-257 melanoma, 5.92 µM.
With `COC(=O)/C=C\C(C#N)(C#N)N=Cc1sccc1C`, the TGI in the assay on ACHN renal was 3.8 µM; with CAKI-1 renal, 3.51 µM; with CCRF-CEM leukemia it was 4.19 µM; with HCC-2998 colon it was 28.6 µM; with HT29 colon it was 3.31 µM; in the assay on IGROV1 ovarian, 29 µM. In addition, the TGI with MDA-MB-435 came out at 9.84 µM; in the assay with RXF 393 renal it was 4.22 µM; in the assay with UACC-257 melanoma it was 23.3 µM.
With `COc1c2c(cc3c1C1(O)Cc4ccc5c(c4C[N+]1(C)CC3)OCO5)OCO2` (stereo not given), the TGI in the assay with ACHN renal, in the assay on CAKI-1 renal, in the assay on CCRF-CEM leukemia, with HCC-2998 colon, in the assay on HT29 colon and in the assay with IGROV1 ovarian was more than 100 µM in each case. Also, the TGI in the assay with MDA-MB-435, with RXF 393 renal, with SF-539 CNS and in the assay on UACC-257 melanoma was more than 100 µM in each case.
On to `CNC(=O)OC(COC)CN1CCN(c2ccccc2C)CC1` (stereo not given), for which the TGI in the assay with ACHN renal, in the assay on CAKI-1 renal, with CCRF-CEM leukemia, in the assay with HCC-2998 colon, in the assay with HT29 colon and in the assay on IGROV1 ovarian was more than 10 µM each time. Moreover, the TGI in the assay on MDA-MB-435, with RXF 393 renal, in the assay with SF-539 CNS and with UACC-257 melanoma was more than 10 µM in each case.
For `Nc1c2c(nc3ccccc13)-c1ccccc1NCCC2`, the TGI with ACHN renal was more than 100 µM; in the assay on CAKI-1 renal, more than 100 µM; with CCRF-CEM leukemia it was 81.3 µM; in the assay with HCC-2998 colon, 27 µM; with HT29 colon, 83.9 µM; in the assay on IGROV1 ovarian, more than 100 µM. Besides, the TGI with MDA-MB-435 was found to be 58.2 µM; in the assay with RXF 393 renal, 33.2 µM; in the assay with SF-539 CNS, 43.9 µM; in the assay with UACC-257 melanoma, 28.3 µM.
